This is an account of results in patent US4946841A, “Pyridazine 3,5-dihydroxy carboxylic acids and derivatives thereof, the use thereof for hypercholesterolemia” (Hoechst Aktiengesellachaft, priority 1988, dated 1990).

For experiment [1] the following is noted: rat; cited from earlier work.
The conditions of experiment [2]: tests on humans; cited from earlier work.
For the next experiment, the target named is T1, HMG-CoA reductase (Rattus norvegicus, UniProt P51639).
T1 construct: solubilized enzyme preparations from liver microsomes of rats; from tissue; host or cells: rat liver microsomes, solubilized; rats induced with cholestyramine (Cuemid)
T1 sequence (P51639 1-887): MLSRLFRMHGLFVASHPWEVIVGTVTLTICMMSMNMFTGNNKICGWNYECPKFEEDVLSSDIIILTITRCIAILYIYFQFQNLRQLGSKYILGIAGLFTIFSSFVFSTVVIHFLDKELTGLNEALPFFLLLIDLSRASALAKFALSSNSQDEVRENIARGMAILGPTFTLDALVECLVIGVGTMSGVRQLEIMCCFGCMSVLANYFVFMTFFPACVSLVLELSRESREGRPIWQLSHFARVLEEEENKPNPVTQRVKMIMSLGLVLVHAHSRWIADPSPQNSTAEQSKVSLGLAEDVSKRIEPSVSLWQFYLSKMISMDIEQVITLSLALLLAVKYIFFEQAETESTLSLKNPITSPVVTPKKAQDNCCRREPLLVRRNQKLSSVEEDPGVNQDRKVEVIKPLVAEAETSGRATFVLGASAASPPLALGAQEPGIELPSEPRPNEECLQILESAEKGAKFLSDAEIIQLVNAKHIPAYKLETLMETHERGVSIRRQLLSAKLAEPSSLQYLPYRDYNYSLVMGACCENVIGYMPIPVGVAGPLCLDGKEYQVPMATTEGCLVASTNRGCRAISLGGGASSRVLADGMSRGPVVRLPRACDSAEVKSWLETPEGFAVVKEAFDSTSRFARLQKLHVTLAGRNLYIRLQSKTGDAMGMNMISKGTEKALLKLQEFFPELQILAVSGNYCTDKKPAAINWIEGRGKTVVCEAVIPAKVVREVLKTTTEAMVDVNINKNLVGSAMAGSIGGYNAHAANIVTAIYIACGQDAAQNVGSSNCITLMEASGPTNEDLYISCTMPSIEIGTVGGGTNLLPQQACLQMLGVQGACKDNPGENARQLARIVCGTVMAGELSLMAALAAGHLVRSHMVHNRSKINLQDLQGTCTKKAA
Put plainly: HMG-CoA reductase activity in enzyme preparations. Format: biochemical, rats. The settings on record: solubilized enzyme from rat liver microsomes, 14C-HMG-CoA substrate; read-out: IC50, molar concentration of the compound required for 50% inhibition of HMG-CoA reductase. The procedure:
The HMG-CoA reductase activity was measured on solubilized enzyme preparations from liver microsomes of rats which, after changing over the day/night rhythm, were induced with cholestyramine (®Cuemid).
The substrate used was (S,R)^14 C-HMG-CoA, and the concentration of NADPH was maintained during the incubation by a regenerating system. ^14 C-mevalonate was removed from the substrate and other products (for example ^14 C-HMG) by column elution, with the elution profile of each individual sample being determined. ^3 H-mevalonate was not included in every test because the determination was of the relative inhibitory effect. In each series of tests, the enzyme-free control, the enzyme-containing normal mixture (=100%) and one with added product, final concentration 10^-5 to 10^-9 M, were treated together. Each individual value was formed as the mean of 3 parallel samples. The significance of the differences between the means for product-free and product-containing samples was assessed by the t test.
The method described above was used to determine the figures for the inhibition of HMG-CoA reductase by the compounds according to the invention (IC50 /mol/liter signifies the molar concentration of the compound required for 50% inhibition): […]

Experiment [3] deals with cholesterol biosynthesis in HEP-G2 cells. The experiment can be described thus: Inhibition of cholesterol biosynthesis in cell cultures of HEP-G2 cells. Format: cell-based. The note with it: Homo sapiens, HepG2, 14C-acetate precursor, read-out: IC50, concentration which brings about 50% inhibition of cholesterol biosynthesis. Here is the method:
Monolayers of HEP-G2 cells in lipoprotein-free nutrient medium were pre-incubated with appropriate concentrations of the test substances for a defined time (for example 1 hour) and, after addition of the labeled precursor, for example sodium ^14 C-acetate, incubation was continued (for example for 3 hours). After addition of an internal standard (^3 H-cholesterol) a portion of the cells was hydrolyzed with alkali. The lipids from the hydrolyzed cells were extracted with chloroform/methanol.
This Lipid mixture was, after addition of carrier cholesterol, subjected to preparative thin-layer chromatography, the cholesterol band was visualized with iodine vapor and then isolated, and the amount of ^14 C-cholesterol formed from the ^14 C-precursor was determined by scintigraphy. Cellular protein was determined in an aliquot of the cells, so that it is possible to calculate the amount of ^14 C-cholesterol formed per unit time per mg of cellular protein. Comparison of this figure with the amount of ^14 C-cholesterol formed per mg of cellular protein and unit time in a culture treated in the same way but free of test substance yielded the inhibitory effect of the particular test product on cholesterol biosynthesis of HEP-G2 cell cultures. […]

The structures appear in SMILES notation. Like-named read-outs stand apart in the source and are kept apart here.

Take `CC(O)(CC(=O)O)CC(=O)O` [3-Hydroxy-3-methylglutaric acid]: the cholesterol-lowering action entry in experiment [1] and in experiment [2] was “significant cholesterol-lowering action” each time.
With `CC(C)c1nnc(-c2ccc(F)cc2)c(-c2ccc(F)cc2)c1/C=C/[C@@H](O)C[C@@H](O)CC(=O)O` (relative stereo) [Example 13a, Sodium 7-[3,4-di(4-fluorophenyl)-6-isopropylpyridazin-5-yl]-3,5-dihydroxy-6-heptenoate], the IC50 was determined as 1.7 nM at HMG-CoA reductase and 50 nM in experiment [3].
In the case of `CC(C)c1nnc(-c2ccc(F)cc2)c(-c2ccc(F)cc2)c1/C=C/[C@@H](O)C[C@@H](O)CC(=O)O` [Example 19a, Sodium 7-[3,4-di(4-fluorophenyl)-6-isopropylpyridazin-5-yl]-3(R),5(S)-dihydroxy-6(E)-heptenoate], the IC50 on HMG-CoA reductase is 1.3 nM; in experiment [3], 25 nM.
